Values quoted from earlier work, collected in US20250000898A1, “MAGNESIUM OXIDE-CONTAINING PHARMACEUTICAL COMPOSITION FOR TREATING PEDIATRIC CHRONIC FUNCTIONAL CONSTIPATION” (SETOLAS Holdings, Inc., priority 2021, published 2025).

What was measured:
[1] = system: children under 15 years of age diagnosed with chronic constipation; settings: for percentage of patients treated successfully for constipation (success rate for treatment of constipation): children under 15 years, median age 2 years 11 months, 3 weeks (magnesium oxide: 50 mg/kg per day, 20 of 49 cases; lactulose: 9 of 50 cases)
[2] = 50 mg/kg daily, 3 weeks

SMILES: OC[C@H]1O[C@@H](O[C@@H]2[C@@H](CO)OC(O)(CO)[C@H]2O)[C@H](O)[C@@H](O)[C@H]1O (mixture of isomers) [lactulose]
- percentage of patients treated successfully for constipation (success rate for treatment of constipation) [1]: 18%

SMILES: [O]=[Mg] [magnesium oxide powder, magnesium oxide]
- percentage of patients treated successfully for constipation (success rate for treatment of constipation) [1]: 41%
- average frequency of defecation ([1]; second and third weeks after administration, 50 mg/kg daily in two divided doses, 3 weeks): 5.5±3.15
- average stool status score (Bristol Stool Scale) ([1]; second and third weeks after administration, 50 mg/kg daily, 3 weeks): 4.90±0.91
- hypermagnesemia [2]: None of the patients exhibited hypermagnesemia
